The test concerns the target T1, breast cancer resistance protein (BCRP) (Homo sapiens, UniProt Q9UNQ0).
T1 sequence (Q9UNQ0 1-655): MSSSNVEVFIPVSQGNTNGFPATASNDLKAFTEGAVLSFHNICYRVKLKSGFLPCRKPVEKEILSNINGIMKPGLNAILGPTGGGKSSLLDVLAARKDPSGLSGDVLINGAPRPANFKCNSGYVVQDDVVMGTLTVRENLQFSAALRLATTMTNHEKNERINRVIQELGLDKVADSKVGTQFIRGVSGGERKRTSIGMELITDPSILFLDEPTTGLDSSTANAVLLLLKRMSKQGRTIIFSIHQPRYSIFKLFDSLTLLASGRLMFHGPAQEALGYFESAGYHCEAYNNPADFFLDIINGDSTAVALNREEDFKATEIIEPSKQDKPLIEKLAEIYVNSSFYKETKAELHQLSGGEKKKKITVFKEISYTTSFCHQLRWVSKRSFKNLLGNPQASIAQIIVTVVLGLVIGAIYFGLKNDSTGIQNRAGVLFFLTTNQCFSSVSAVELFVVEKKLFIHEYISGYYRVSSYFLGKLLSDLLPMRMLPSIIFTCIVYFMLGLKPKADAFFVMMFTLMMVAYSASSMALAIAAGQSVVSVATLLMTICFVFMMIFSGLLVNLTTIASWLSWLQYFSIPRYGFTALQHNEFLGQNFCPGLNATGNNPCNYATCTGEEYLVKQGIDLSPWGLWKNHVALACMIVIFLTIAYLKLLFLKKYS
In words: mitoxantrone accumulation in BCRP-overexpressing PLB985 cells, flow cytometry. Type of test: cell-based. (Flow cytometry measures light scatter and fluorescence of single cells or particles in a stream.)

The IC50 is the concentration at which inhibition is half-maximal. The low end stands for greater potency in that assay, the high end for weaker potency in that assay.

Take `COc1cc(N)c(Cl)cc1C(=O)NC1CCN(CCCOc2ccc(F)cc2)CC1OC` (centres unmarked) [cisapride]: the midpoint of inhibition, the IC50, lay at 400 ± 100 nM. Next, `O=C(Nc1c(Cl)cncc1Cl)c1ccc(OC(F)F)c(OCC2CC2)c1` [roflumilast]: 900 ± 200 nM.

(Values after paper PMC5302078 (Journal of Biomolecular Screening, 2016).)
